Where two headings read alike, the source gives them in different places.
Assays:
[1] = molecular target: T1, capture de (³H)dopamine par les synaptosomes striataux de rat (Rattus norvegicus, UniProt P23977); assay: biochemical
T1 construct: Les culots résultants P2 contenant les synaptosomes bruts sont ensuite utilisés sans purification supplémentaire; from tissue; host or cells: Wistar rat striatum, crude synaptosomes (P2 pellet)
Procedure: Ce test est pratiqué selon la méthode utilisée par Vignon et Lazdunski en opérant de la façon suivante. Des rats Wistar pesant 200-250g sont tués par dislocation cervicale. Leurs cerveaux sont rapidement prélevés et les striata sont dissé-qués sur la glace. Les striata sont ensuite homogéné-isés (10 allers-retours) avec un homogénéisant Potter dans 50 volumes de tampon Tris HCl 10 mM à pH 7,4 contenant 0,32 M de sucrose. L'homogénat est ensuite centrifugé à 1000g pendant 10min à 4°C, puis le surnageant obtenu est recentrifugé à 10000g pendant 20min à 4°C. Les culots résultants P2 contenant les synaptosomes bruts sont ensuite utilisés sans purification supplémentaire.
On ajoute alors de la dopamine tritiée ((³H)DA, Amersham) à une concentration finale de 5 nM pendant 5 min à 30°C, et on interrompt sa capture par filtration de 150 µl du milieu d'incubation sur des filtres en fibres de verre GF/B (Whatman). La radioactivité retenue par les filtres est mesurée dans un compteur à scintillation liquide (LKB)avec 3 ml d'ACS (Amersham) comme scintillant. La capture non spécifique est mesurée à 4°C dans des incubations parallèles : elle est ensuite sous-traite de la capture totale mesurée à 30°C.
Les composés à tester sont solubilisés au départ dans de l'eau à une concentration de 1mM et les autres concentrations sont obtenues par des dilutions successives de cette solution mère dans l'eau.

[2] = molecular target: T2, complexe de recapture de la dopamine (Rattus norvegicus, UniProt P23977); assay: biochemical; type: binding; conditions: for Sélectivité IC50[^3H]TCP / IC50[^3H]BTCP: ratio of IC50 at the PCP receptor to IC50 at the dopamine reuptake complex
T2 construct: expériences de compétition sur les membranes de striatum préparées comme ci-dessus; from tissue; host or cells: rat striatal membranes
T2 sequence (P23977 whole entry, one chain of several): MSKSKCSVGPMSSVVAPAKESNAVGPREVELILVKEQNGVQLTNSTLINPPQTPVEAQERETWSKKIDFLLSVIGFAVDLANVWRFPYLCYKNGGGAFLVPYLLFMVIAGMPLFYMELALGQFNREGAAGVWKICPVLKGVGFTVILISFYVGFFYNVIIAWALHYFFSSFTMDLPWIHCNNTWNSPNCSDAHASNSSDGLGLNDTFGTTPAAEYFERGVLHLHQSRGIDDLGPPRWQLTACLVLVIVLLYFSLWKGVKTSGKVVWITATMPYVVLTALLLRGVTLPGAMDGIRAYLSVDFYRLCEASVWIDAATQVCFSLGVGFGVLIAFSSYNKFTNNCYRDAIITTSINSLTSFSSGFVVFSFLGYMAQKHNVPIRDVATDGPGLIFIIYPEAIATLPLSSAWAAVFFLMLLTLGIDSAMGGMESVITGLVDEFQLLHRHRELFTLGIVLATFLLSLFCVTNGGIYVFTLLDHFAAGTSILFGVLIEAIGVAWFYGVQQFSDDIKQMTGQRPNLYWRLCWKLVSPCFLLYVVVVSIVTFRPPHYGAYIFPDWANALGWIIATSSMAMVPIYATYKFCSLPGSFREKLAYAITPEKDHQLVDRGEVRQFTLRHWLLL
Procedure: Exemple 35 : Affinité des composés pour les sites de liaison de la (³H)BTCP sur les membranes striatales de cerveaux de rats.
Les striata de cerveaux de rats rapidement disséqués dans la glace sont homogénéisés avec un ultra turax pendant 30 s (position 6) dans 50 volumes d'une solution de sucrose 0,32 M tamponnée par du Tris-HCl 10 mM à pH = 7,4. L'homogénat est centrifugé à 4°C à 1000g pendant 10 mln, puis le surnageant obtenu est centrifugé à 40000 g à 4°C pendant 30 min et les culots obtenus sont repris dans 1 ml de tampon par striatum.
L'affinité des composés pour le complexe de recapture de la dopamine est déterminée par des expériences de compétition sur les membranes de striatum préparées comme ci-dessus. Le ligand radioactif utilisé est la (³H)BTCP (Service des Molécules Marquées du CEA, Saclay France) à 55Ci/mmol.
Après 90 min à 4°C, 3 aliquots de 250 µl sont filtrés sous vide sur des filtres de fibre de verre GF/B (Whatman). La liaison non spécifique est obtenue dans des expériences parallè-les réalisées en présence de 10 µM de BTCP non marquée. Elle est soustraite de la liaison totale pour obtenir la liaison spécifique.

récepteur de la PCP = assay: Competition binding at the (3H)TCP sites on rat brain homogenates (Example 36); conditions: 1 nM (3H)TCP, 30 min at 25°C
Excerpt: Exemple 36 : Affinité des composés pour les sites de liaison de la (³H)TCP sur les homogénats de cerveaux de rats.
Dans cet essai on mesure les affinités des composés pour le récepteur de la PCP par des expériences de compétition sur des homogénats de cerveaux de rats. Le ligand radioactif utilisé est la (³H)TCP à une activité spécifique de 62 Ci/mmol (Service des Molécules Marquées, CEA Saclay France).
Les cerveaux de rats (sans le cervelet et le tronc cérébral) sont homogénéisés à l'ultra turax dans 20 volumes de tampon Hepes-Tris 50 mM, pH 7,7. Après centrifugation pendant 30 min à 15000 g le culot est repris dans le même volume de tampon et recentrifugé dans les mêmes conditions. Le culot final est repris dans du tampon Hepes-Tris 50 mM, pH 7,7 de façon à obtenir une concentration en protéine de 6 à 8 mg/ml.
Les expériences de compétition sont réalisées en incubant pendant 30 min les membranes (concentration finale en protéine : 0,6 à 0,8 mg/ml) en milieu tampon 5 mM Hepes-Tris, pH 7,7 à 25°C, en présence d'une concentration fixe de ligand tritié (1 nM)et de concentrations croissantes de composés à tester. Trois échantillons de 600 µL sont ensuite filtrés sur filtres de fibres de verre GF/B prétraités par du PEI (polyéthylénimine) à 0,1%. Les filtres sont rincés avec 3x5ml de tampon Tris-HCl 10 mM, NaCl 100 mM et la radioactivité retenue est mesurée dans un compteur à scintillation liquide. La liaison non spécifique est obtenue en présence de TCP […].

souris Swiss = assay: Locomotor activity of mice in the Boissier-Simon actimeter (Example 38); type: in vivo; conditions: 30 min after administration, beams crossed from 20th to 35th minute
Procedure: Exemple 38 : Mesure de l'activité locomotrice.
L'activité locomotrice de souris Swiss (mâles CD1, 25-30 g, Charles River, St Aubin lès Elbeuf, France) est mesurée dans l'actimètre Boissier-Simon (Apelex, Bagneux, France).
30 minutes après l'administration des composés à tester (10 mg/kg, i.p.), les souris sont introduites dans des cages individuelles en Plexiglass (L = 26 cm, l = 20 cm, h = 10 cm), équipées de deux cellules photoélectriques situées à 1 cm au-dessus du plancher. Chaque cellule est reliée à un compteur électromécanique. "L'activité locomotrice" correspond au nombre de rayons traversés, de la 20ème à la 35ème minute après introduction dans les cages d'actimétrie.

[3] = test system: fixation de la (³H)BTCP dans le striatum de souris; assay: Inhibition of in vivo (3H)BTCP binding in mouse striatum (Example 40); conditions: mice, compound s.c. 60 min before i.v. (3H)BTCP, sacrifice 30 min later
Procedure: Exemple 40 : Etude de l'inhibition de la fixation "in vivo" de (³H)BTCP chez la souris.
Pour cette étude, on utilise des souris Swiss mâles pesant 20 à 25g. Les souris sont réparties par groupes et alimentées avec de la nourriture standard de laboratoire et de l'eau à volonté, en réalisant des cycles de lumière artificielle de 12h consécutives à partir de 7h du matin. Les expériences sont effectuées entre 10h et 18h. Les mesures de la fixation "in vivo" de la (³H)BTCP sont effectuées comme il a été décrit par Maurice et al, 1989, de la façon suivante.
On injecte aux souris par voie sous-cutanée le composé à tester dans 100µl de solution physiologique pour les composés n^o 4 et n^o 16 et dans 100µl d'un mélange 1:1 en volume de solution physiologique et de DMSO pour le composé n^o 26. 60 min après cette injection on leur injecte dans une veine de la queue (³H)BTCP à une dose de 5µCi dans 100µl d'un mélange de solution physiologique et d'éthanol à 5%. 30min après cette injection, on sacrifie les souris. Les striata de cerveaux sont rapidement disséqués et homogénéisés avec un ultra turrax (IKA Verk) réglage maximum pendant 20s dans 80 volumes d'un tampon Na₂HPO₄, HCl 50mM, pH=7,4 à 4°C. Deux aliquots de […] sont filtrées sous pression réduite sur des filtres GF/B (Whatman) prétraités par de la polyéthylène imine à 0,5% (Aldrich). On rince ensuite les filtres deux fois avec 5ml d'un tampon NaCl 50mM, tris-HCl 10mM, pH=7,4 à 4°C. La radioactivité fixée qui reste sur les filtres, et la radioactivité totale, obtenue à partir des deux aliquots de 200µl d'homogénats sont mesurées dans des flacons de 6ml contenant 3,5ml de ACS (Amersham) avec un spectrophotomètre à scintillation liquide Excel 1410 (LKB). La fixation non spécifique est définie comme la radioactivité présente dans chaque région après prétraitement des animaux avec de la BTCP (40mg/kg dans 100µl de solution saline), injectée par voie sous-cutanée, 60min avant l'injection de (³H)BTCP. Les résultats sont exprimés sous la forme des rapports radioactivité fixée / radioactivité libre (B/F) dans lesquels le taux de (³H)BTCP libre est estimé en soustrayant la radioactivité fixée de la radioactivité totale.

[4] = rat striatal synaptosomes, 5 nM (3H)DA, 5 min at 30°C, read-out: [3H] DA IC50
[5] = rat striatal membranes, 0,2 nM (3H)BTCP, 90 min at 4°C, read-out: [3H] BTCP IC50

T1 sequence (P23977 whole entry): as the sequence (P23977 whole entry, one chain of several) above

Compound | IC50 [1, 4] [nM] | IC50 [2, 5] [nM] | further results
CC1CC(C)CN(C2(c3cc4ccccc4o3)CCCC(C)C2)C1 (stereo not drawn) [composé n^o 14, (benzo(b)furannyl-2)-1-r-((diméthyl-3,5 pipéridino)-1)-1 t-méthyl-3 cyclohexane] | 2740 | 2210 | 
CC1CC(C)CN([C@]2(c3cc4ccccc4s3)CC[C@H](C)CC2)C1 (relative stereo) [composé n^o 13, (benzo(b)thiophényl-2)-1-r-((diméthyl-3,5 pipéridino)-1)-1 c-méthyl-4 cyclohexane] | 425 | 635 | 
ICC1CCCN(C2(c3cc4ccccc4s3)CCCCC2)C1 (stereo not drawn) [composé n^o 11] | 54.3 | 26 | Sélectivité IC50[^3H]TCP / IC50[^3H]BTCP [2]: >>3846; IC50 (récepteur de la PCP): > 100000 nM
C[C@H]1CCC[C@@](c2cc3ccccc3s2)(N2CCCCC2)C1 (relative stereo) [composé n^o 22, (benzo(b)thiophényl-2)-1 c-méthyl-3-r-(piperidino-1)-1 cyclohexane] | 691 | 369 | 
CC(=O)OCC1CCCN(C2(c3cc4ccccc4s3)CCCCC2)C1 (stereo not drawn) [composé n^o 15, acétate de (benzo(b)-thiophényl-2)-1 ((hydroxyméthyl-3 pipéridino)-1)-1 cyclohexane] | 44.5 | 24 | 
C[C@H]1CCCC[C@@]1(c1cc2ccccc2s1)N1CCCCC1 (relative stereo) [composé n^o 24, (benzo(b)thiophényl--2)-1 c-méthyl-2-r-(pipéridino-1)-1 cyclohexane] | 30.6 | 14.7 | Activité locomotrice Variation (%) par rapport aux témoins (100%) pour la dose 10 mg/kg,i.p. (souris Swiss): +101±23%
c1ccc2cc(C3(N4CCCCC4)CCCCC3)ccc2c1 [composé n^o 16, (naphtyl-2)-1 (pipéridi-no-1)-1 cyclohexane] | 36.3 | 14.8 | Activité locomotrice Variation (%) par rapport aux témoins (100%) pour la dose 10 mg/kg,i.p. (souris Swiss): +269±57%; ID₅₀ (mg/kg) [3]: 2,66 mg/kg
c1ccc2sc(C3(N4CCC5(CC4)OCCO5)CCCCC3)cc2c1 [composé n^o 5, (benzo(b)thiophényl-2)-1 ((éthylènekétal-4 pipéridino)-1)-1 cyclohexane] | 65.7 | 35.5 | Sélectivité IC50[^3H]TCP / IC50[^3H]BTCP [2]: >>2816; IC50 (récepteur de la PCP): > 100000 nM
CC1CCCCC1(c1cc2ccccc2s1)N1CCCCC1 (stereo not drawn) [composé n^o 25, (benzo(b)thiophényl-2)-1 t-méthyl-2--r-(pipéridino-1)-1 cyclohexane] | 1280 | 1480 | 
CC1CCCC(c2cc3ccccc3s2)(N2CCCCC2)C1 (stereo not drawn) [composé n^o 23, (benzo(b)thiophényl-2)-1 t-méthyl-3-r-(pipéridino-1)-1 cyclohexane] | 606 | 590 | 
c1ccc2c(C3(N4CCCCC4)CCCCC3)cccc2c1 [composé n^o 17, (naphtyl-1)-1 (pipéridino-1)-1 cyclohexane] | 3250 | 2560 | 
OCC1CCCN(C2(c3cc4ccccc4s3)CCCCC2)C1 (stereo not drawn) [composé n^o 9, (benzo(b)thiophényl-2)-1 ((hydroxyméthyl-3 pipéridino)-1)-1 cyclohexane] | 20.9 | 18.1 | Activité locomotrice Variation (%) par rapport aux témoins (100%) pour la dose 10 mg/kg,i.p. (souris Swiss): +416±36%
ClCC1CCCN(C2(c3cc4ccccc4s3)CCCCC2)C1 (stereo not drawn) [composé n^o 12, (benzo(b)thiophényl-2)-1 ((chlorométhyl-3 pipéridino)-1)-1 cyclohexane] | 107 | 102 | 
CCN(CC)C1(c2cc3ccccc3s2)CCCCC1 [composé n^o8, (benzo(b)thiophényl-2)-1 (diéthylamino-1)-1 cyclohexane] |  |  | IC50 [1]: 20.1 nM; IC50 [2]: 16.7 nM; Activité locomotrice Variation (%) par rapport aux témoins (100%) pour la dose 10 mg/kg,i.p. (souris Swiss): +52±21%
CC1CCN(C2(c3cc4ccccc4s3)CCCCC2)CC1 [composé n^o 7, (benzo(b)thiophényl-2)-1 ((méthyl-4 pipéridino)-1)-1 cyclohexane] | 11.5 | 30.8 | 
